Measured values taken from ChEMBL document CHEMBL1921749, “5-Lipoxygenase-activating protein (FLAP) inhibitors. Part 4: development of 3-[3-tert-butylsulfanyl-1-[4-(6-ethoxypyridin-3-yl)benzyl]-5-(5-methylpyridin-2-ylmethoxy)-1H-indol-2-yl]-2,2-dimethylpropionic acid (AM803), a potent, oral, once daily FLAP inhibitor” (J Med Chem, 2011).

Columns and labels:
[1] = target: T1, Leukotriene C4 synthase (Homo sapiens, UniProt Q16873); experiment: Inhibition of LTC4 synthase
T1 sequence (Q16873 whole entry): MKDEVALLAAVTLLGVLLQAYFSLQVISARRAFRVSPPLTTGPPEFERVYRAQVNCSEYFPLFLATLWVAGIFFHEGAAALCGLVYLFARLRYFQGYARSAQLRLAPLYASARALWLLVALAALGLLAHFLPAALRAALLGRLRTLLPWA

[2] = Plasma protein binding in rat; type: ADME, cell-free; conditions: read-out: PPB (converted)
[3] = Oral bioavailability in Beagle dog at 5 mg/kg; type: ADME, organism-based, Canis lupus familiaris; conditions: in vivo
[4] = target: Cytochrome P450 2D6 (Homo sapiens, UniProt P10635); experiment: Inhibition of human CYP2D6; type: ADME
Chain of Cytochrome P450 2D6 (P10635 whole entry): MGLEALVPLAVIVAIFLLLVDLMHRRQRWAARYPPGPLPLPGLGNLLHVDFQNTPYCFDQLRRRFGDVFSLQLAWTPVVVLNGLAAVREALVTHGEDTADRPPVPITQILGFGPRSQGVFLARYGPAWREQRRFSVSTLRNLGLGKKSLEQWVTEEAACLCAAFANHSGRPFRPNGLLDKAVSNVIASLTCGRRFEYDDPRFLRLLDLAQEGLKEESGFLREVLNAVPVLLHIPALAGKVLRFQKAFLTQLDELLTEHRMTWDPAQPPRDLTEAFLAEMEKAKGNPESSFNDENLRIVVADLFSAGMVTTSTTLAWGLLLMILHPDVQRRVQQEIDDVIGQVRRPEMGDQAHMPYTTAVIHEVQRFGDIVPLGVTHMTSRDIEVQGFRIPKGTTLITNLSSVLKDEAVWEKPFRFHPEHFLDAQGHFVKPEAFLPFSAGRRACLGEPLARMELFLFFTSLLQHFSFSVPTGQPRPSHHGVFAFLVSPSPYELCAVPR

[5] = Clearance in Beagle dog at 2 mg/kg, iv; type: ADME, organism-based, Canis lupus familiaris; design: dose 2 mg/kg, route intravenous; conditions: in vivo
[6] = tested on: Rattus norvegicus; experiment: Antiinflammatory activity in rat assessed as inhibition of calcium ionophore A23187-induced CysLT production in bronchoalveolar lavage fluid at 3 mg/kg, po administered 4 hrs prior to A23187 challenge; type: functional, Lung; design: scale not given: the % may be the effect or the level left
[7] = target: T2, Polyunsaturated fatty acid 5-lipoxygenase (Homo sapiens, UniProt P09917); experiment: Inhibition of 5-lipoxygenase
T2 sequence (P09917 whole entry): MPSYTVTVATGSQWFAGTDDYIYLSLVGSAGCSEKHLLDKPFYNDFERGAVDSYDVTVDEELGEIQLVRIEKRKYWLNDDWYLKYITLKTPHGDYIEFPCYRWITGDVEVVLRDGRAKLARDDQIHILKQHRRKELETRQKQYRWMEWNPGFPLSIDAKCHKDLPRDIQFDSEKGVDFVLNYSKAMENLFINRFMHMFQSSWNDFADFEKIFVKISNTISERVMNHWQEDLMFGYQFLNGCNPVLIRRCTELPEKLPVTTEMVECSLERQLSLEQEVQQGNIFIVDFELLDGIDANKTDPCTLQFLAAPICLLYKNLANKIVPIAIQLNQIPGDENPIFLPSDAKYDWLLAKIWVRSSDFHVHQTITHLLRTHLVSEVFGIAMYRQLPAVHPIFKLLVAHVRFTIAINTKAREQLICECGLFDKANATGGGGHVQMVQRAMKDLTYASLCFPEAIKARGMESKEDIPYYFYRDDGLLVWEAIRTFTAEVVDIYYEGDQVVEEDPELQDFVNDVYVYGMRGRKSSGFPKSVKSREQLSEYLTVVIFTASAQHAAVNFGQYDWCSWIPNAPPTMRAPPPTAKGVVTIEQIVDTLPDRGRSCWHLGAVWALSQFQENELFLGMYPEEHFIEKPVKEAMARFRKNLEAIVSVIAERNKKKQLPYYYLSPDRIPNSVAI

[8] = target: Cytochrome P450 3A4 (Homo sapiens, UniProt P08684); experiment: Time-dependent inhibition of CYP3A4 at 10 uM; type: ADME
Chain of Cytochrome P450 3A4 (P08684 whole entry): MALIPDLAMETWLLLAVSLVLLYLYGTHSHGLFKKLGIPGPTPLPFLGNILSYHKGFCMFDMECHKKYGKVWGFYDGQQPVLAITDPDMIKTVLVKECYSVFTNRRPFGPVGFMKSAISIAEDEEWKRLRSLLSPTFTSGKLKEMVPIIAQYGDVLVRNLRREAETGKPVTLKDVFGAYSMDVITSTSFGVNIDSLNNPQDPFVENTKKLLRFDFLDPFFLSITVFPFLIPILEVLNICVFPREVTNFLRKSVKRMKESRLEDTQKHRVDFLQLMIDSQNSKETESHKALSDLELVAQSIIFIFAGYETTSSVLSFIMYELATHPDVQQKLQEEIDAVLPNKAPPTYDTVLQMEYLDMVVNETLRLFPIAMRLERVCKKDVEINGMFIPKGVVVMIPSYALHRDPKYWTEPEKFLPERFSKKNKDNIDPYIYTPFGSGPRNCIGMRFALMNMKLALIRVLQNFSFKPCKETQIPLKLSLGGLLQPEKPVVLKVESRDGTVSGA

[9] = Plasma concentration in rat at 3 mg/kg, po after 4 hrs; type: ADME, organism-based; design: dose 3 mg/kg, route oral
[10] = target: T3, Cytochrome P450 1A2 (Homo sapiens, UniProt P05177); experiment: Inhibition of human CYP1A2; type: ADME
T3 sequence (P05177 whole entry): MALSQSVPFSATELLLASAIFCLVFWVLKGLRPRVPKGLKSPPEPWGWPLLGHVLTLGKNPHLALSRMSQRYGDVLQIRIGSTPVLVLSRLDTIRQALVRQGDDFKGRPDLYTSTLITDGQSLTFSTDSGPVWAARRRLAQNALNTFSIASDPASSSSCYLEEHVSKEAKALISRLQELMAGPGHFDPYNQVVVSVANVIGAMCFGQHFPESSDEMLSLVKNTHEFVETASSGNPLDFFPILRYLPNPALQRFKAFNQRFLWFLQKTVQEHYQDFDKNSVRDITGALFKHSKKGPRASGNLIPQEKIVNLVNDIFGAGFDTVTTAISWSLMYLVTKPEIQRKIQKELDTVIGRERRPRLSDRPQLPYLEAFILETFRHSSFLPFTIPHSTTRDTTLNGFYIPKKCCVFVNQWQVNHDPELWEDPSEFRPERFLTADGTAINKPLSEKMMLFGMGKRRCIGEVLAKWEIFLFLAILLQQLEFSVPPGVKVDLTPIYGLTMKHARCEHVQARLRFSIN

[11] = target: Cytochrome P450 2C19 (Homo sapiens, UniProt P33261); experiment: Inhibition of human CYP2C19; type: ADME
Chain of Cytochrome P450 2C19 (P33261 whole entry): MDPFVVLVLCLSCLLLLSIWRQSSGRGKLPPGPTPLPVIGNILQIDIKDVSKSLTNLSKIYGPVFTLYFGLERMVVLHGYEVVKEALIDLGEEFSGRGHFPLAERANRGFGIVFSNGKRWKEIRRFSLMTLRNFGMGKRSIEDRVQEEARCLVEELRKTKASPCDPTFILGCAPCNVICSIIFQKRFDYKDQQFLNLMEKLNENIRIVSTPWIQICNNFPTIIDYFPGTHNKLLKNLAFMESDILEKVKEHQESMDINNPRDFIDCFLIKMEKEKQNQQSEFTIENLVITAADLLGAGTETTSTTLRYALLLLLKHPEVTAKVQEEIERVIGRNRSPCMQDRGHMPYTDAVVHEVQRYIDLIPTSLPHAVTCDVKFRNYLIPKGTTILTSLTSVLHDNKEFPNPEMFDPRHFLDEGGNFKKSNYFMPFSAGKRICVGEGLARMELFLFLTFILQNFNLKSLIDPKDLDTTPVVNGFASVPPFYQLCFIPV

[12] = target: T4, Arachidonate 5-lipoxygenase-activating protein (Homo sapiens, UniProt P20292); experiment: Inhibition of FLAP in human peripheral leukocytes assessed as inhibition of calcium ionophore A23187-induced LTB4 production after 5 mins by ELISA in absence of human serum albumin; type: cell-based
T4 sequence (P20292 whole entry): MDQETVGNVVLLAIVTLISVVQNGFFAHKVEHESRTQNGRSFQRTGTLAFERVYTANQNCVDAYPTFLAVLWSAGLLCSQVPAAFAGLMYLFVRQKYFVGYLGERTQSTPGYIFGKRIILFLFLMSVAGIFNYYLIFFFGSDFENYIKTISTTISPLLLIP

[13] = target: T4, Arachidonate 5-lipoxygenase-activating protein; experiment: Inhibition of FLAP in human whole blood assessed as inhibition of calcium ionophore A23187-induced LTB4 production preincubated for 5 hrs by ELISA
[14] = Plasma protein binding in human; type: ADME, cell-free; conditions: read-out: PPB (converted)
[15] = tested on: Rattus norvegicus; experiment: Antiinflammatory activity in rat assessed as inhibition of calcium ionophore A23187-induced LTB4 production in bronchoalveolar lavage fluid at 3 mg/kg, po administered 4 hrs prior to A23187 challenge; type: functional, Lung; design: scale not given: the % may be the effect or the level left
[16] = target: T4, Arachidonate 5-lipoxygenase-activating protein; experiment: Inhibition of FLAP in human peripheral leukocytes assessed as inhibition of calcium ionophore A23187-induced LTB4 production after 1 hr by ELISA in absence of human serum albumin; type: cell-based

IC50 [1]: 36 µM
fraction unbound [2]: 0.002
bioavailability [3]: 51%
IC50 [4]: > 40 µM
clearance [5]: 0.6 mL/min/kg
IC50 [7]: 20 µM
TDI [8]: Not Active
concentration at 4 h [9]: 1000 nM
IC50 [10]: > 40 µM
IC50 [11]: > 40 µM
IC50 [12]: 0.001 µM
IC50 [13]: 0.076 µM
fraction unbound [14]: 0.005
IC50 [16]: 0.001 µM
Compound: CCOc1ccc(-c2ccc(Cn3c(CC(C)(C)C(=O)O)c(SC(C)(C)C)c4cc(OCc5ccc(C)cn5)ccc43)cc2)cn1 [FIBOFLAPON]
Activity [6]: 80%
Activity [15]: 100%
